“And” between values parts separate entries of the source, which are not always exact repeats. Equal values may be shown once. Toxic doses and inconclusive results are not listed. Cut-off read from the data, not from the text of the source: active = T/C of 150% or more; inactive = T/C below 125%.
System: L1210 leukemia ip in BDF1 mice, survival T/C
Assay: NCI In Vivo Anticancer Drug Screen. Data for tumor model L1210 Leukemia (intraperitoneal) in B6D2F1 (BDF1) mice
Conditions: endpoint: mean survival time, higher = longer survival
Summary of the method: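 Ratio derived from survival: compound-dosed mice over vehicle-dosed mice, all bearing a transplantable tumor.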

[1] = dose: 100.0 mg/kg/injection, schedule: Q01DX001 (ip), vehicle: carboxymethylcellulose (CMC)
[2] = dose: 200.0 mg/kg/injection, schedule: Q01DX001 (ip), vehicle: carboxymethylcellulose (CMC)
[3] = dose: 400.0 mg/kg/injection, schedule: Q01DX001 (ip), vehicle: carboxymethylcellulose (CMC)
[4] = dose: 100.0 mg/kg/injection, schedule: Q01DX009 (ip), vehicle: Klucel (hydroxypropylcellulose) (HPC)
[5] = dose: 100.0 mg/kg/injection, schedule: Q04DX003 (ip), vehicle: Klucel (hydroxypropylcellulose) (HPC)
[6] = dose: 200.0 mg/kg/injection, schedule: Q01DX009 (ip), vehicle: Klucel (hydroxypropylcellulose) (HPC)
[7] = dose: 200.0 mg/kg/injection, schedule: Q04DX003 (ip), vehicle: Klucel (hydroxypropylcellulose) (HPC)
[8] = dose: 400.0 mg/kg/injection, schedule: Q01DX009 (ip), vehicle: Klucel (hydroxypropylcellulose) (HPC)
[9] = dose: 400.0 mg/kg/injection, schedule: Q04DX003 (ip), vehicle: Klucel (hydroxypropylcellulose) (HPC)
[10] = dose: 12.5 mg/kg/injection, schedule: Q04DX003 (ip), vehicle: saline with Tween-80
[11] = dose: 75.0 mg/kg/injection, schedule: Q01DX001 (ip), vehicle: saline
[12] = dose: 100.0 mg/kg/injection, schedule: Q01DX009 (ip), vehicle: saline with Tween-80
[13] = dose: 150.0 mg/kg/injection, schedule: Q01DX001 (ip), vehicle: saline
[14] = dose: 200.0 mg/kg/injection, schedule: Q01DX009 (ip), vehicle: saline with Tween-80
[15] = dose: 400.0 mg/kg/injection, schedule: Q01DX009 (ip), vehicle: saline with Tween-80
[16] = dose: 25.0 mg/kg/injection, schedule: Q04DX003 (ip), vehicle: saline with Tween-80
[17] = dose: 50.0 mg/kg/injection, schedule: Q04DX003 (ip), vehicle: saline with Tween-80

Measured: T/C

CNC(=O)Nc1cccc2ccccc12
inactive: [1] 95 % of control | dose: 100.0 mg/kg/injection, schedule: Q01DX009 (ip), vehicle: carboxymethylcellulose (CMC) 93 % of control and 89 % of control | dose: 100.0 mg/kg/injection, schedule: Q04DX002 (ip), vehicle: carboxymethylcellulose (CMC) 106 % of control | dose: 100.0 mg/kg/injection, schedule: Q04DX003 (ip), vehicle: carboxymethylcellulose (CMC) 97 % of control | [2] 101 % of control | dose: 200.0 mg/kg/injection, schedule: Q01DX009 (ip), vehicle: carboxymethylcellulose (CMC) 98 % of control and 101 % of control | dose: 200.0 mg/kg/injection, schedule: Q04DX002 (ip), vehicle: carboxymethylcellulose (CMC) 100 % of control | dose: 200.0 mg/kg/injection, schedule: Q04DX003 (ip), vehicle: carboxymethylcellulose (CMC) 96 % of control | [3] 97 % of control | dose: 400.0 mg/kg/injection, schedule: Q01DX009 (ip), vehicle: carboxymethylcellulose (CMC) 93 % of control and 86 % of control | dose: 400.0 mg/kg/injection, schedule: Q04DX002 (ip), vehicle: carboxymethylcellulose (CMC) 99 % of control | dose: 400.0 mg/kg/injection, schedule: Q04DX003 (ip), vehicle: carboxymethylcellulose (CMC) 97 % of control

O=C(/C=C/c1ccccc1)NC(=S)NCc1ccco1
inactive: [4] 94 % of control and 95 % of control | dose: 100.0 mg/kg/injection, schedule: Q04DX002 (ip), vehicle: Klucel (hydroxypropylcellulose) (HPC) 97 % of control | [5] 95 % of control | [6] 92 % of control and 98 % of control | dose: 200.0 mg/kg/injection, schedule: Q04DX002 (ip), vehicle: Klucel (hydroxypropylcellulose) (HPC) 101 % of control and 114 % of control | [7] 95 % of control | [8] 94 % of control and 95 % of control | dose: 400.0 mg/kg/injection, schedule: Q04DX002 (ip), vehicle: Klucel (hydroxypropylcellulose) (HPC) 95 % of control and 102 % of control | [9] 94 % of control

CC12CCC3(CC1CCC1OC12)OCCO3 (centres undefined)
inactive: [1] 103 % of control | [2] 100 % of control | [3] 97 % of control

Cc1ccc(Nc2ccc([N+](=O)[O-])cc2[N+](=O)[O-])c(C)c1
inactive: [4] 94 % of control | [5] 96 % of control | [6] 101 % of control | [7] 91 % of control | [8] 103 % of control | [9] 98 % of control

O=C(O)CC12CCCCC1CCCC2 (centres undefined)
inactive: dose: 100.0 mg/kg/injection, schedule: Q01DX009 (ip), vehicle: acetone 94 % of control | dose: 200.0 mg/kg/injection, schedule: Q01DX009 (ip), vehicle: acetone 100 % of control | dose: 400.0 mg/kg/injection, schedule: Q01DX009 (ip), vehicle: acetone 94 % of control

c1ccc2c(c1)C[N+]1(Cc3ccccc3-2)CC12CCCCC2
inactive: dose: 12.0 mg/kg/injection, schedule: Q01DX009 (ip), vehicle: saline 110 % of control | dose: 25.0 mg/kg/injection, schedule: Q01DX009 (ip), vehicle: saline 104 % of control | dose: 50.0 mg/kg/injection, schedule: Q01DX009 (ip), vehicle: saline 100 % of control

O=[N+]([O-])c1c(Br)sc(Br)c1[N+](=O)[O-]
inactive: dose: 2.5 mg/kg/injection, schedule: Q01DX009 (ip), vehicle: Klucel (hydroxypropylcellulose) (HPC) 88 % of control | dose: 2.5 mg/kg/injection, schedule: Q04DX003 (ip), vehicle: Klucel (hydroxypropylcellulose) (HPC) 109 % of control | dose: 5.0 mg/kg/injection, schedule: Q01DX009 (ip), vehicle: Klucel (hydroxypropylcellulose) (HPC) 88 % of control | dose: 5.0 mg/kg/injection, schedule: Q04DX003 (ip), vehicle: Klucel (hydroxypropylcellulose) (HPC) 101 % of control | dose: 10.0 mg/kg/injection, schedule: Q01DX009 (ip), vehicle: Klucel (hydroxypropylcellulose) (HPC) 108 % of control | dose: 10.0 mg/kg/injection, schedule: Q04DX003 (ip), vehicle: Klucel (hydroxypropylcellulose) (HPC) 96 % of control

COC1OC(COC(C)=O)C(OC(C)=O)C(OC(C)=O)[CH]1[Hg][O]C(C)=O (centres undefined)
inactive: dose: 6.25 mg/kg/injection, schedule: Q04DX003 (ip), vehicle: saline 96 % of control | dose: 12.5 mg/kg/injection, schedule: Q04DX003 (ip), vehicle: saline 98 % of control | dose: 25.0 mg/kg/injection, schedule: Q04DX003 (ip), vehicle: saline 92 % of control

CCCCCCCCCCCC(=O)[O][Sn]([CH2]CCC)([CH2]CCC)[O]C(=O)CCCCCCCCCCC
inactive: [10] 108 % of control

NC(=O)OCC(N)C(=O)O (centres undefined)
inactive: [11] 96 % of control | [12] 89 % of control | [13] 94 % of control | [14] 87 % of control | dose: 300.0 mg/kg/injection, schedule: Q01DX001 (ip), vehicle: saline 100 % of control | [15] 90 % of control

CCCCCCCCCCCC(=O)NN
inactive: dose: 18.8 mg/kg/injection, schedule: Q01DX009 (ip), vehicle: carboxymethylcellulose (CMC) 105 % of control | dose: 37.5 mg/kg/injection, schedule: Q01DX009 (ip), vehicle: carboxymethylcellulose (CMC) 96 % of control | dose: 75.0 mg/kg/injection, schedule: Q01DX009 (ip), vehicle: carboxymethylcellulose (CMC) 109 % of control and 114 % of control | dose: 100.0 mg/kg/injection, schedule: Q01DX001 (ip), vehicle: saline 98 % of control | dose: 200.0 mg/kg/injection, schedule: Q01DX001 (ip), vehicle: saline 104 % of control | dose: 400.0 mg/kg/injection, schedule: Q01DX001 (ip), vehicle: saline 106 % of control

O=c1n(-c2ccccc2)c(=O)n2n1C1/C=C\C=C/C2C2CCC21 (centres undefined)
inactive: dose: 12.5 mg/kg/injection, schedule: Q01DX009 (ip), vehicle: saline with Tween-80 92 % of control | [10] 100 % of control | dose: 25.0 mg/kg/injection, schedule: Q01DX009 (ip), vehicle: saline with Tween-80 95 % of control | [16] 95 % of control | [17] 87 % of control

CCN(CC)CCC(CC=C(C)C)(C(N)=O)c1cccc2ccccc12 (centres undefined)
inactive: dose: 5.0 mg/kg/injection, schedule: Q04DX003 (ip), vehicle: saline with Tween-80 98 % of control | dose: 10.0 mg/kg/injection, schedule: Q04DX003 (ip), vehicle: saline with Tween-80 100 % of control | dose: 20.0 mg/kg/injection, schedule: Q04DX003 (ip), vehicle: saline with Tween-80 109 % of control

N#Cc1ccc(P(=O)(O)O)cc1
inactive: [11] 102 % of control | [13] 94 % of control

CSC(N)=Nc1ccc(C(=O)O)cc1
inactive: [12] 105 % of control | [14] 112 % of control | [15] 97 % of control

COC(CBr)OC
inactive: dose: 10.0 mg/kg/injection, schedule: Q01DX009 (ip), vehicle: saline 95 % of control | dose: 10.0 mg/kg/injection, schedule: Q04DX003 (ip), vehicle: saline 98 % of control | dose: 20.0 mg/kg/injection, schedule: Q01DX009 (ip), vehicle: saline 95 % of control | dose: 20.0 mg/kg/injection, schedule: Q04DX003 (ip), vehicle: saline 101 % of control | [16] 98 % of control | dose: 40.0 mg/kg/injection, schedule: Q01DX009 (ip), vehicle: saline 104 % of control | dose: 40.0 mg/kg/injection, schedule: Q04DX003 (ip), vehicle: saline 108 % of control | [17] 98 % of control
